Source: US9035085B2, “Aryl ketone compounds and compositions for delivering active agents” (EMISPHERE TECHNOLOGIES, INC., priority 2004, dated 2015)

Experiment: Insulin oral delivery in rats (blood glucose)
Type: in vivo, Male Sprague-Dawley rats
Details: delivery agent 200 mg/kg with insulin 0.50 mg/kg, 1 ml/kg
Text: The typical dosing and sampling protocols were as follows.

O=C(O)CCC(=O)c1ccccc1 [Compound 1, 4-Oxo-4-phenyl-butyric acid]
% Change in Glucose (from control): −30.7%

COc1ccc(C(=O)CCC(=O)O)cc1 [Compound 5, 4-(4-Methoxy-phenyl)-4-oxo-butyric acid]
% Change in Glucose (from control): −12.1%

COc1ccc(C(=O)CCCC(=O)O)cc1 [Compound 6, 5-(4-Methoxy-phenyl)-5-oxo-pentanoic acid]
% Change in Glucose (from control): −18.3%

O=C(O)CCCC(=O)c1ccccc1 [Compound 8]
% Change in Glucose (from control): −1.3%

COc1c(C)cc(C(=O)CCCCC(=O)O)cc1C [Compound 10]
% Change in Glucose (from control): −13.5%

COc1ccccc1C(=O)CCC(=O)O [Compound 12]
% Change in Glucose (from control): −2.3%

COc1ccc(C(=O)CCCCC(=O)O)cc1 [Compound 14]
% Change in Glucose (from control): −2.0%

Cc1ccc(C(=O)CCCCC(=O)O)cc1C [Compound 16]
% Change in Glucose (from control): −25.1%

Cc1ccc(C(=O)CCC(=O)O)cc1C [Compound 17]
% Change in Glucose (from control): −9.5%

Cc1ccc(C)c(C(=O)CCC(=O)O)c1 [Compound 19]
% Change in Glucose (from control): −28.3%

Cc1cc(C)cc(C(=O)CCCCCCC(=O)O)c1 [Compound 20]
% Change in Glucose (from control): −6.6%

O=C(O)CCCCC(=O)c1cc(Cl)ccc1Cl [Compound 21]
% Change in Glucose (from control): −40.8%

O=C(O)CCC(=O)c1cc(Cl)ccc1Cl [Compound 22]
% Change in Glucose (from control): −16.3%

Cc1cc(C)cc(C(=O)CCCCC(=O)O)c1 [Compound 23]
% Change in Glucose (from control): −7.5%

O=C(O)CCCCCCC(=O)c1ccccc1 [Compound 25]
% Change in Glucose (from control): −20.8%

O=C(O)CCCCCC(=O)c1ccccc1 [Compound 28]
% Change in Glucose (from control): −26.4%

CCc1ccc(C(=O)CCC(=O)O)cc1 [Compound 29]
% Change in Glucose (from control): −35.4%

O=C(O)CCC(=O)c1ccc(F)cc1F [Compound 30]
% Change in Glucose (from control): −10.5%

CCCCCCOc1ccc(C(=O)CCC(=O)O)cc1 [Compound 34]
% Change in Glucose (from control): 9.4%

O=C(O)CCC(=O)c1cc(F)ccc1F [Compound 35]
% Change in Glucose (from control): −11.8%

O=C(O)CCCC(=O)c1ccc(Cl)cc1 [Compound 36]
% Change in Glucose (from control): −31.9%

O=C(O)CCCCC(=O)c1cc(F)cc(F)c1 [Compound 37]
% Change in Glucose (from control): −39.0%

Cc1ccc(C(=O)CCC(=O)O)cc1 [Compound 38]
% Change in Glucose (from control): −26.9%

O=C(O)CCCC(=O)c1ccc(Oc2ccccc2)cc1 [Compound 40]
% Change in Glucose (from control): −3.9%

O=C(O)CCCC(=O)c1cccc(Oc2ccccc2)c1 [Compound 41]
% Change in Glucose (from control): −16.5%

O=C(O)CCCCCC(=O)c1cccc(Oc2ccccc2)c1 [Compound 42]
% Change in Glucose (from control): −13.8%
